Source: the NIST ThermoML archive (doi:10.1021/acs.jced.5b00537)

What was measured:
[1] = Liquid; for viscosity: Cone and plate viscometry; for mass density: Vibrating tube method; for vapor or sublimation pressure: Ebulliometric method (Recirculating still)
[2] = xn = mol fraction of the nth substance listed; conditions: 100 kPa, Liquid, x2 = 0; for viscosity: Cone and plate viscometry; for mass density: Vibrating tube method

CC(C)CO [2-methyl-1-propanol]
[1]
Conditions | mass density, 101 kPa [kg/m3] | mass density, 101.33 kPa [kg/m3] | viscosity, 101 kPa [mPa·s]
293.15 K | 801.75 | – | 4.315
298.15 K | – | 797.83 | –
303.15 K | 794.16 | – | 3.089
313.15 K | 786.27 | – | 2.261
323.15 K | 778.28 | – | 1.701
333.15 K | 769.74 | – | 1.29
343.15 K | 760.83 | – | –
353.15 K | 751.67 | – | –
363.15 K | 741.9 | – | –

[1]
Conditions | vapor or sublimation pressure [kPa]
296.87 K | 1.391
298.77 K | 1.593
300.53 K | 1.796
302.12 K | 1.995
302.29 K | 2
302.3 K | 2
309.88 K | 3.289
311.74 K | 3.692
313.42 K | 4.095
314.93 K | 4.489
316.71 K | 4.991
316.78 K | 4.995
322.51 K | 6.986
323.97 K | 7.587
325.33 K | 8.182
326.61 K | 8.784
327.82 K | 9.384
329.01 K | 9.99
329.02 K | 9.989
336.03 K | 14.47
337.45 K | 15.56
338.83 K | 16.66
340.11 K | 17.76
342.37 K | 19.95
342.51 K | 19.99
342.52 K | 19.99
357.51 K | 39.95
357.52 K | 39.94
362.71 K | 49.87
367.13 K | 59.85
370.94 K | 69.83
374.36 K | 79.82
377.44 K | 89.76
378.97 K | 94.99

CC(C)CO [2-methyl-1-propanol] + CCC(C)(C)O
[2]
Conditions | mass density [kg/m3] | viscosity [mPa·s]
293.15 K | 801.75 | 4.315
303.15 K | 794.16 | 3.089
313.15 K | 786.27 | 2.261
323.15 K | 778.28 | 1.701
333.15 K | 769.74 | 1.29
343.15 K | 760.83 | –
353.15 K | 751.67 | –
363.15 K | 741.9 | –

CCC(C)(C)O [2-methylbutan-2-ol]
[1]
Conditions | mass density, 101 kPa [kg/m3] | mass density, 101.33 kPa [kg/m3] | viscosity, 101 kPa [mPa·s]
293.15 K | 808.77 | – | 4.596
298.15 K | – | 804.28 | –
303.15 K | 799.74 | – | 2.983
313.15 K | 790.35 | – | 2.078
323.15 K | 780.66 | – | 1.494
333.15 K | 770.4 | – | 1.093
343.15 K | 759.8 | – | –
353.15 K | 749.13 | – | –
363.15 K | 738.77 | – | –

[1]
Conditions | vapor or sublimation pressure [kPa]
296.61 K | 1.992
296.7 K | 1.99
297.94 K | 2.19
299.29 K | 2.388
300.33 K | 2.589
301.46 K | 2.791
302.54 K | 2.999
310.7 K | 4.984
311.35 K | 5.181
311.98 K | 5.383
312.29 K | 5.49
313.76 K | 5.991
315.13 K | 6.487
316.4 K | 6.987
317.37 K | 7.387
322.63 K | 9.978
322.92 K | 10
323.15 K | 10.18
323.49 K | 10.38
323.84 K | 10.58
324.14 K | 10.78
324.51 K | 10.97
325.37 K | 11.57
326.73 K | 12.38
327.62 K | 12.97
327.81 K | 13.17
329.05 K | 13.97
330.38 K | 14.96
336.11 K | 19.94
336.26 K | 19.99
337.58 K | 21.45
338.97 K | 22.94
340.32 K | 24.44
341.57 K | 25.93
341.59 K | 25.92
342.39 K | 26.94
348.11 K | 34.91
351.17 K | 39.89
351.33 K | 39.95
353.93 K | 44.88
356.46 K | 49.88
361.02 K | 59.92
372.63 K | 93.14
373.16 K | 94.89
373.29 K | 95.01
373.6 K | 96.54
374.05 K | 98.01
374.53 K | 99.81
374.93 K | 101.04
376.03 K | 104.99
377.33 K | 109.95
378.63 K | 115.02
379.87 K | 120.01
381.05 K | 124.96
